According to patent US11919965B2, “Methods of treating multiple myeloma with bispecific anti-BCMA x anti-CD3 antibodies” (Regeneron Pharmaceuticals, Inc., priority 2019, dated 2024):

Assays:
Experiment in all cases: FACS surface BCMA after overnight incubation with anti-BCMA antibodies or DAPT
Format in all cases: cell-based, human
[1] = system: surface BCMA on MM1S cells; settings: stained with the anti-BCMA antibody
Procedure: (§1) Flow cytometric analysis was utilized to determine the impact of overnight incubation of multiple myeloma cell lines with anti-BCMA antibodies on the level of surface BCMA. […] After 18 hours, wells were washed with cold FACS wash (PBS+1% filtered FBS) and resuspended in 667 nM of the same anti-BCMA antibody in cold stain buffer (Miltenyi 130-091-221) for 30 minutes on ice. After incubation, the cells were washed twice with cold FACS wash (PBS+1% filtered FBS) and bound antibody was detected by incubating with the appropriate anti-human secondary antibody (anti-hlgG or anti-HIS) on ice for an additional 30-45 minutes. After incubation, cells were washed, re-suspended in 200 μL cold PBS containing 1% filtered FBS and analyzed by flow cytometry on a BD FACS Canto II. Fold increase in staining was calculated by dividing the MFI of stained cells previously incubated overnight in BCMA abs or DAPT by the MFI of stained cells that were incubated overnight in media only.

[2] = system: surface BCMA on Molp8 cells
Procedure: as §1

[3] = system: surface BCMA on NCI-H929 cells
Procedure: as §1

[4] = system: surface BCMA on U266 cells
Procedure: as §1

## C[C@H](NC(=O)Cc1cc(F)cc(F)c1)C(=O)N[C@H](C(=O)OC(C)(C)C)c1ccccc1 [DAPT]
[1]
  MFI fold change over cells incubated in media only, Average: 11.9 fold
[2]
  fold increase of BCMA levels after overnight DAPT, range over detecting antibodies: 2.4-8.6 fold
[3]
  fold increase of BCMA levels after overnight DAPT, range over detecting antibodies: 2.3-4 fold
[4]
  fold increase of BCMA levels after overnight DAPT, range over detecting antibodies: 5.3-9.0 fold
